Data: paper PMC5485989, “Role of Free Radicals and Biotransformation in Trichloronitrobenzene-Induced Nephrotoxicity In Vitro” (International Journal of Molecular Sciences, 2017)
Several values for one entry are separate records, joined by “and”; a condition that tells them apart may be missing. Equal entries are not always repeated. Marks after values point to notes of the source that are not given here.

Legend:
kidney = tested on: kidney; set-up: method as in PMID 2576285; conditions: 1.0 mmol/kg, intraperitoneally, cited from earlier work
[1] = tested on: isolated renal cortical cells (IRCC); test: Effect of antioxidant or biotransformation inhibitor pretreatment on TCNB cytotoxicity, LDH release in IRCC; conditions: for Effect of pretreatment on 3,4,5-TCNB cytotoxicity: 0.5 mM 3,4,5-TCNB, 30 min exposure; for Effect of pretreatment on 3,4,5-TCNB cytotoxicity / Effect of pretreatment on 2,3,4-TCNB cytotoxicity / Effect of pretreatment on 2,4,5-TCNB cytotoxicity / Effect of pretreatment on 2,4,6-TCNB cytotoxicity: IRCC; for Effect of pretreatment on 2,3,4-TCNB cytotoxicity: 1.0 mM 2,3,4-TCNB, 60 min exposure; for Effect of pretreatment on 2,4,5-TCNB cytotoxicity: 1.0 mM 2,4,5-TCNB; for Effect of pretreatment on 2,4,5-TCNB cytotoxicity / Effect of pretreatment on 2,4,6-TCNB cytotoxicity: 90 min exposure; for Effect of pretreatment on 2,4,6-TCNB cytotoxicity: 1.0 mM 2,4,6-TCNB; for % of lactate dehydrogenase release, PreTx: pretreatment compound alone, no TCNB
Method: Untreated rats were anesthetized with pentobarbital (75 mg/kg, i.p.) and isolated renal cortical cells (IRCC) were obtained by using the collagenase perfusion method. Initial cell viability was determined by measuring trypan blue (2% w/v) exclusion and lactate dehydrogenase (LDH) release. […] IRCC were then exposed to various concentrations of a TCNB (0, 0.5, or 1.0 mM) for 15, 30, 60, 90, or 120 min. Following the incubation period, flasks were removed and placed on ice. Samples (0.5 mL) were taken for LDH release assays. Briefly, the samples were centrifuged (3000× g, 3 min), the was supernatant decanted and saved, and the pellet was disrupted with 1 mL of 10% Triton X-100 solution to release cellular LDH activity. LDH activity was then determined in each fraction (supernatant and pellet) as previously described using a kinetic assay based on the amount of NADH produced from NAD [57]. The LDH released was expressed as % of total (supernatant plus pellet).
Concentrations used in these experiments were 0.5 mM (3,4,5-TCNB) or 1.0 mM (2,3,4-, 2,4,5- and 2,4,6-TCNB). Incubation times with a TCNB added were 30 min (3,4,5-TCNB), 60 min (2,3,4-TCNB), or 90 min (2,4,5- and 2,4,6-TCNB). The pretreatment times and concentrations for all of the pretreatments are shown below in Table 5.

[2] = tested on: isolated renal cortical cells (IRCC); test: Time and concentration cytotoxicity study, LDH release in IRCC; type: cell-based, male Fischer 344 rats; conditions: for Cytotoxicity (LDH release), time and concentration response: 0.5 or 1.0 mM, 15-120 min, significant difference from DMSO control, p < 0.05
Method: To determine the comparative nephrotoxic potential of the four TCNBs in IRCC, a time and concentration response study was performed starting at 15 min and 0.5 or 1.0 mM and adjusting the times tested based on the results (Figure 2).

renal cortical slices = conditions: cited from earlier work
[3] = Table 1 experiments, 60 min incubation, mean ± S.E., n = 4
[4] = Table 2 experiments, 90 min incubation, mean ± S.E., n = 4
[5] = pretreatment compound followed by 1.0 mM 2,3,4-TCNB, 60 min, mean ± S.E., n = 4
[6] = pretreatment compound followed by 1.0 mM 2,4,5-TCNB, 90 min, mean ± S.E., n = 4
[7] = pretreatment compound followed by 1.0 mM 2,4,6-TCNB, 90 min, mean ± S.E., n = 4
[8] = Table 3 experiments, 90 min incubation, mean ± S.E., n = 4

Compound	Effect of pretreatment on 3,4,5-TCNB cytotoxicity [1]	Effect of pretreatment on 2,3,4-TCNB cytotoxicity [1]	Effect of pretreatment on 2,4,6-TCNB cytotoxicity [1]	% of lactate dehydrogenase release, PreTx [1, 3]	% of lactate dehydrogenase release, PreTx [1, 4]	% of lactate dehydrogenase release, PreTx + TCNB [1, 5]	% of lactate dehydrogenase release, PreTx + TCNB [1, 6]	% of lactate dehydrogenase release, PreTx + TCNB [1, 7]	% of lactate dehydrogenase release, PreTx [1, 8]	also measured
O=[N+]([O-])c1ccc(Cl)cc1 [4-chloronitrobenzene]										Renal effects (kidney; 48 h after treatment): induced diuresis, increased N-acetyl-β-D-glucosaminidase excretion, and caused swelling of the kidney; Urinary creatinine and blood urea nitrogen (BUN) concentrations (kidney): not altered
S=P(N1CC1)(N1CC1)N1CC1 [thio-tepa, Thio-tepa]	at least some attenuation									
O=[N+]([O-])c1cc(Cl)c(Cl)cc1Cl [2,4,5-TCNB]										Cytotoxicity (LDH release), time and concentration response [2]: induced cytotoxicity at 90 min (0.5 mM) and 120 min (0.5 and 1.0 mM), but not at 60 min with either concentration
N[C@@H](CCC(=O)N[C@@H](CS)C(=O)NCC(=O)O)C(=O)O [Glutathione]	attenuation of 3,4,5-TCNB cytotoxicity	attenuation of 2,3,4-TCNB cytotoxicity	attenuation of 2,4,6-TCNB cytotoxicity	13 ± 1%	15 ± 1%	14 ± 1 ^d %	17 ± 2 ^d %	20 ± 1 ^c,d %		Effect of pretreatment on 2,4,5-TCNB cytotoxicity [1]: attenuation of 2,4,5-TCNB cytotoxicity
Cn1cc[nH]c1=S [Methimazole]	reduced	reduced	reduced	9 ± 1%	14 ± 2%	11 ± 1 ^d %	23 ± 2 ^c %	31 ± 2 ^c %	17 ± 1%	
CCN(CC)C(=S)S [diethyldithiocarbamate, Diethyldithiocarbamate]	at least some attenuation									
CCCCCCCCN [n-Octylamine, N-Octylamine]	reduced	reduced		16 ± 1 ^c %	11 ± 2%	19 ± 1 ^c,d %	32 ± 2 ^c %	29 ± 3 ^c %	11 ± 1%	
O=[N+]([O-])c1c(Cl)cc(Cl)cc1Cl [2,4,6-TCNB]										Cytotoxicity (LDH release), time and concentration response [2]: cytotoxicity was observed at 30 and 60 min (0.5 and 1.0 mM) but not at 15 min with either concentration; Concentration at which cytotoxicity was evident ([2]; as early as 30 min): 500 µM
CC(C)(C(=O)c1cccnc1)c1cccnc1 [Metyrapone]	reduced		reduced	12 ± 1%	16 ± 1 ^c %	17 ± 1 ^c %	28 ± 2 ^c %	27 ± 2 ^c %	15 ± 1%	
O=C(O)CC(S)C(=O)O (centres unmarked) [Mercaptosuccinate]	reduced	reduced		10 ± 1%	17 ± 1 ^c %	10 ± 1 ^d %	24 ± 1 ^c %	31 ± 1 ^c %	16 ± 1%	
Cc1c(C)c2c(c(C)c1O)CC[C@@](C)(CCC[C@H](C)CCC[C@H](C)CCCC(C)C)O2 [α–Tocopherol, α-Tocopherol]	attenuation of 3,4,5-TCNB cytotoxicity	attenuation of 2,3,4-TCNB cytotoxicity	not reduced	11± 1%	13 ± 1%	12 ± 2 ^d %	14 ± 3 ^d %	25 ± 2 ^c %	14 ± 1%	Effect of pretreatment on 2,4,5-TCNB cytotoxicity [1]: attenuation of 2,4,5-TCNB cytotoxicity
CC(=O)N[C@@H](CS)C(=O)O [NAC, N-acetyl-L-cysteine]	attenuation of 3,4,5-TCNB cytotoxicity	attenuation of 2,3,4-TCNB cytotoxicity	not reduced	13± 1%	15 ± 1%	16 ± 1 ^c,d %	17 ± 1 ^d %	23 ± 2 ^c %	13 ± 1%	Effect of pretreatment on 2,4,5-TCNB cytotoxicity [1]: attenuation of 2,4,5-TCNB cytotoxicity
NNC(=O)c1ccncc1 [Isoniazid]	at least some attenuation	reduced		11 ± 1%	10 ± 1%	19 ± 1 ^c,d %	34 ± 1 ^c,d %	28 ± 2 ^c %		
COc1ccc2c(c1)c(CC(=O)O)c(C)n2C(=O)c1ccc(Cl)cc1 [Indomethacin]	reduced	reduced	reduced	13 ± 1%	16 ± 2%	16 ± 2 ^c,d %	21 ± 2 ^c %	21 ± 1 ^c,d %	16 ± 1 ^c %	
O=C1O[C@H]([C@@H](O)CO)C(O)=C1O [Ascorbate]	attenuation of 3,4,5-TCNB cytotoxicity	attenuation of 2,3,4-TCNB cytotoxicity	attenuation of 2,4,6-TCNB cytotoxicity	12 ± 1%	12 ± 1%	14 ± 1 ^d %	16 ± 2 ^d %	17 ± 2 ^c,d %		Effect of pretreatment on 2,4,5-TCNB cytotoxicity [1]: attenuation of 2,4,5-TCNB cytotoxicity
CCCCOCCOCCOCc1cc2c(cc1CCC)OCO2 [PiBx, Piperonyl butoxide]	reduced	reduced		10 ± 1%	11 ± 2%	12 ± 1 ^c,d %	24 ± 3 ^c %	22 ± 1 ^c %	13 ± 1%	
Nc1ccc(S(=O)(=O)Nc2ccnn2-c2ccccc2)cc1 [sulfaphenazole, Sulfaphenazole]	at least some attenuation									
O=[N+]([O-])c1ccc(Cl)c(Cl)c1Cl [2,3,4-TCNB, 2,3,4-trichloronitrobenzene]										Lowest concentration inducing in vitro nephrotoxicity (increased LDH release and decreased pyruvate-stimulated gluconeogenesis) (renal cortical slices; 120 min incubations): 0.5 mM; Cytotoxicity (LDH release), time and concentration response [2]: exhibited cytotoxicity starting after 15 min (1.0 mM) and 60 min exposure (0.5 and 1.0 mM), but no cytotoxicity was observed at 15 min; % of lactate dehydrogenase release, 2,3,4-TCNB ([1]; 1.0 mM 2,3,4-TCNB alone, 60 min, one value per pretreatment experiment, mean ± S.E., n = 4): 28 ± 2 ^c % and 21 ± 1 ^c % and 22 ± 1 ^c % and 18 ± 1 ^c % and 20 ± 2 ^c % and 23 ± 2 ^c % and 20 ± 1 ^c % and 19 ± 1 ^c %
O=[N+]([O-])c1ccc(Cl)c(Cl)c1 [3,4-DCNB, 3,4-dichloronitrobenzene]										Lowest concentration reducing pyruvate-stimulated gluconeogenesis and increasing LDH release (renal cortical slices): 0.5 mM
